Measurements: article PMC9944328 (Nature Communications, 2023)
Where “and” joins values, the source holds several entries; their conditions need not be identical. Identical values can stand only once.

Key:
[1] = test system: SSTR2; test: β-arrestin recruitment with co-transfection of GRK2; assay type: cell-based, human; settings: N276(6.55)A and F294(7.35)A with GRK2 co-transfection
Protocol: In addition, we measured the function of the residues located in the core region and the common ligand binding pocket.
Human full-length β-arrestin 1 was cloned into pcDNA3.1+ vector with the large fragment (LgBiT) of the NanoBiT system and a 15-amino acid flexible linker ([sequence]) at the N-terminus. Human full-length SSTR wild-type and mutant vectors were C-terminally fused with a 15-amino acid flexible linker and the small fragment (SmBiT). HEK293 cells were seeded into six-well microplates at a density of 1.0 × 10^6 cells/well and cultured for 24 h at 37 °C with 5% CO2. After that, cells were co-transfected with pcDNA3.1+ vectors encoding SSTR wild-type or mutants and human β-arrestin 1. After transfecting for 24 h, the transfected cells were suspended and seeded into white 96-well plates, and then cultured at 37 °C overnight. After that the medium in each well was exchanged for 90 μl of 0.01% bovine serum albumin containing 20 μl of 50 μM coelenterazine h (Carbosynth) diluted in the HBSS assay buffer and incubated for 40 min at room temperature. Then, ligands diluted in the assay buffer was added to each well and the luminescence intensity was measured using the Synergy H1 microplate reader and detected at room temperature in a time period. All data presented are means of at least three independent experiments.

[2] = target: SSTR2 (Homo sapiens, UniProt P30874); test: NanoBiT β-arrestin 1 recruitment assay, HEK293 (SSTR2 wild-type); assay type: cell-based; parameters: Human full-length SSTR wild-type and mutant vectors were C-terminally fused; expressed in transfected cells; host or cells: HEK293; Best-fit values Bottom / Best-fit values Top / Best-fit values Span / Best-fit Bottom / Best-fit Top / Best-fit Span: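 percent of maximal wild-type response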; settings: for Span (best-fit value) / Top (best-fit value): β-arrestin1 recruitment;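 as to Bottom (best-fit): percent of maximal wild-type response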;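 as to Bottom: percent of maximal wild-type response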;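 as to Span (best-fit value): percent of maximal wild-type response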;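 as to Span (best-fit): percent of maximal wild-type response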;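 as to Span: percent of maximal wild-type response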;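 as to Top (best-fit value): percent of maximal wild-type response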;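 as to Top (best-fit): percent of maximal wild-type response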;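 as to Top: percent of maximal wild-type response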
Chain of SSTR2 (Homo sapiens, UniProt P30874) (P30874 whole entry, the tested form may be a part): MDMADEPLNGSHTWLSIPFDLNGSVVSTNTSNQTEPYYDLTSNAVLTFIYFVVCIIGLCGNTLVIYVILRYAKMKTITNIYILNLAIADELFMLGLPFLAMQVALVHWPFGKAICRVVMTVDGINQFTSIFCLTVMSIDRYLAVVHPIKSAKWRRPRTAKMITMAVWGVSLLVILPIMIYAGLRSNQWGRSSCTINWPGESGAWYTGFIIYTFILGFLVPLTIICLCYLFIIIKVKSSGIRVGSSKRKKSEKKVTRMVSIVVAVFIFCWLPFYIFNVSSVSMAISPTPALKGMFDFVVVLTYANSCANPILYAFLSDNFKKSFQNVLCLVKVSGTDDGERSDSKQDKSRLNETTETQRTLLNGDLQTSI
Chain of SSTR2 (Homo sapiens, UniProt P30874) (P49407 whole entry partner, the tested form may be a part): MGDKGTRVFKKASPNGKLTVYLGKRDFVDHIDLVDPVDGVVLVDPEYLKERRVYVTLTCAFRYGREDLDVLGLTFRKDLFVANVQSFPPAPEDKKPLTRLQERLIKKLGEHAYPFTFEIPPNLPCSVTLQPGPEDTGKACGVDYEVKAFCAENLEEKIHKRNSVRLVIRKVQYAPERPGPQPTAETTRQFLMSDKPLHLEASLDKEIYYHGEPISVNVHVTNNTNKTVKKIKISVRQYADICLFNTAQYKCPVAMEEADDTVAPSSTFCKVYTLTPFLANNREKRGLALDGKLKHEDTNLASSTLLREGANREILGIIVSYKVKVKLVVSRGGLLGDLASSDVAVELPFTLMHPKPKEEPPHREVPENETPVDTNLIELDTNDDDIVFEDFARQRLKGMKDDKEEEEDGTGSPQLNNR
Protocol: The NanoBiT β-arrestin 1 recruitment assays were carried out according to the method described previously. […] Human full-length SSTR wild-type and mutant vectors were C-terminally fused with a 15-amino acid flexible linker and the small fragment (SmBiT). HEK293 cells were seeded into six-well microplates at a density of 1.0 × 10^6 cells/well and cultured for 24 h at 37 °C with 5% CO2. After that, cells were co-transfected with pcDNA3.1+ vectors encoding SSTR wild-type or mutants and human β-arrestin 1. After transfecting for 24 h, the transfected cells were suspended and seeded into white 96-well plates, and then cultured at 37 °C overnight. After that the medium in each well was exchanged for 90 μl of 0.01% bovine serum albumin containing 20 μl of 50 μM coelenterazine h (Carbosynth) diluted in the HBSS assay buffer and incubated for 40 min at room temperature. Then, ligands diluted in the assay buffer was added to each well and the luminescence intensity was measured using the Synergy H1 microplate reader and detected at room temperature in a time period. All data presented are means of at least three independent experiments.

[3] = D122A set WT-3 = Q126A/Y205A set WT-2 = F208A set WT-3
[4] = F127A set WT-1 = I130A set WT-2
[5] = F127A set WT-3 = I130A set WT-1
[6] = Q126A/I130A set WT-3 = F127A set WT-2
[7] = SSTR2 WT-1 (run 1 of WT in the mutant's section)
[8] = SSTR2 WT-2 (run 2 of WT in the mutant's section)
[9] = SSTR2 WT-3 (run 3 of WT in the mutant's section)
[10] = best-fit value, WT-1 (run 1, WT of each mutant's batch)
[11] = best-fit value, WT-2 (run 2, WT of each mutant's batch)
[12] = best-fit value, WT-3 (run 3, WT of each mutant's batch)

C[C@@H](O)[C@@H]1NC(=O)[C@H](CCCCN)NC(=O)[C@@H](Cc2c[nH]c3ccccc23)NC(=O)[C@H](Cc2ccccc2)NC(=O)[C@@H](NC(=O)[C@H](N)Cc2ccccc2)CSSC[C@@H](C(=O)N[C@H](CO)[C@@H](C)O)NC1=O [octreotide]
β-arrestin recruitment with GRK2 [1]: nearly abolished
Bottom (best-fit) ([2]; D122A set WT-1): 12.18
Span (best-fit) ([2]; D122A set WT-1): 93.68
Top (best-fit) ([2]; D122A set WT-1): 105.9
Bottom (best-fit) ([2]; D122A set WT-2): 4.265
Span (best-fit) ([2]; D122A set WT-2): 83.04
Top (best-fit) ([2]; D122A set WT-2): 87.31
Bottom (best-fit) [2, 3]: -0.5169
Span (best-fit) [2, 3]: 99.09
Top (best-fit) [2, 3]: 98.58
Bottom (best-fit) [2, 4]: -0.5804
Span (best-fit) [2, 4]: 101.3
Top (best-fit) [2, 4]: 100.7
Bottom (best-fit) [2, 5]: -0.2332
Span (best-fit) [2, 5]: 101
Top (best-fit) [2, 5]: 100.8
Bottom (best-fit) ([2]; F208A set WT-1): -0.7342
Span (best-fit) ([2]; F208A set WT-1): 99.34
Top (best-fit) ([2]; F208A set WT-1): 98.6
Bottom (best-fit) ([2]; F208A set WT-2): -1.061
Span (best-fit) ([2]; F208A set WT-2): 99.77
Top (best-fit) ([2]; F208A set WT-2): 98.71
Emax ([2]; HEK293): 100%
Bottom (best-fit) ([2]; Q126A set WT-1): -2.277
Span (best-fit) ([2]; Q126A set WT-1): 105
Top (best-fit) ([2]; Q126A set WT-1): 102.7
Bottom (best-fit) [2, 6]: 0.158
Span (best-fit) [2, 6]: 100.8
Top (best-fit) [2, 6]: 100.9
Span (best-fit value) [2, 7]: 93.68 and 99.09 and 83.04 and 90.27 and 99.77
Top (best-fit value) [2, 7]: 105.9 and 98.58 and 87.31 and 89.81 and 98.2
Span (best-fit value) [2, 8]: 83.04 and 105 and 80.44 and 93.46 and 96.97
Top (best-fit value) [2, 8]: 87.31 and 102.7 and 85.95 and 93.4 and 96.99
Span (best-fit value) [2, 9]: 99.09 and 101.1 and 95.18 and 96.4
Top (best-fit value) [2, 9]: 98.58 and 97.65 and 95.41 and 96.36
Best-fit values Bottom ([2]; WT-1 (F265A set)): 0.158
Best-fit values Span ([2]; WT-1 (F265A set)): 100.8
Best-fit values Top ([2]; WT-1 (F265A set)): 100.9
Best-fit values Bottom ([2]; WT-1 (F272A set)): 4.265
Best-fit values Span ([2]; WT-1 (F272A set)): 83.04
Best-fit values Top ([2]; WT-1 (F272A set)): 87.31
Best-fit values Bottom ([2]; WT-1 (K291A set)): 12.18
Best-fit values Bottom ([2]; WT-1 (N276A set)): 12.18
Best-fit values Span ([2]; WT-1 (N276A set)): 93.68
Best-fit values Top ([2]; WT-1 (N276A set)): 105.9
Best-fit values Bottom ([2]; WT-1 (P220A set)): 1.374
Best-fit values Span ([2]; WT-1 (P220A set)): 94.44
Best-fit values Top ([2]; WT-1 (P220A set)): 95.82
Best-fit values Bottom ([2]; WT-1 (W269A set)): -1.494
Best-fit values Span ([2]; WT-1 (W269A set)): 99.94
Best-fit values Top ([2]; WT-1 (W269A set)): 98.45
Best-fit values Bottom ([2]; WT-2 (F265A set)): -0.2332
Best-fit values Span ([2]; WT-2 (F265A set)): 101
Best-fit values Top ([2]; WT-2 (F265A set)): 100.8
Best-fit values Bottom ([2]; WT-2 (F272A set)): 12.18
Best-fit values Span ([2]; WT-2 (F272A set)): 93.68
Best-fit values Top ([2]; WT-2 (F272A set)): 105.9
Best-fit values Bottom ([2]; WT-2 (K291A set)): 4.265
Best-fit values Bottom ([2]; WT-2 (N276A set)): 4.265
Best-fit values Span ([2]; WT-2 (N276A set)): 83.04
Best-fit values Top ([2]; WT-2 (N276A set)): 87.31
Best-fit values Bottom ([2]; WT-2 (P220A set)): -0.5804
Best-fit values Span ([2]; WT-2 (P220A set)): 101.3
Best-fit values Top ([2]; WT-2 (P220A set)): 100.7
Best-fit values Bottom ([2]; WT-2 (W269A set)): 12.18
Best-fit values Span ([2]; WT-2 (W269A set)): 93.68
Best-fit values Top ([2]; WT-2 (W269A set)): 105.9
Best-fit values Bottom ([2]; WT-3 (F265A set)): -0.5804
Best-fit values Span ([2]; WT-3 (F265A set)): 101.3
Best-fit values Top ([2]; WT-3 (F265A set)): 100.7
Best-fit values Bottom ([2]; WT-3 (F272A set)): -0.5169
Best-fit values Span ([2]; WT-3 (F272A set)): 99.09
Best-fit values Top ([2]; WT-3 (F272A set)): 98.58
Best-fit values Bottom ([2]; WT-3 (K291A set)): -0.5169
Best-fit values Bottom ([2]; WT-3 (N276A set)): -0.5169
Best-fit values Span ([2]; WT-3 (N276A set)): 99.09
Best-fit values Top ([2]; WT-3 (N276A set)): 98.58
Best-fit values Bottom ([2]; WT-3 (P220A set)): -0.2332
Best-fit values Span ([2]; WT-3 (P220A set)): 101
Best-fit values Top ([2]; WT-3 (P220A set)): 100.8
Best-fit values Bottom ([2]; WT-3 (W269A set)): 6.264
Best-fit values Span ([2]; WT-3 (W269A set)): 85.81
Best-fit values Top ([2]; WT-3 (W269A set)): 92.07
Bottom (best-fit) ([2]; Y205A set WT-1): -3.442
Span (best-fit) ([2]; Y205A set WT-1): 101.1
Top (best-fit) ([2]; Y205A set WT-1): 97.65
Bottom (best-fit) ([2]; Y205A set WT-3): 2.142
Span (best-fit) ([2]; Y205A set WT-3): 104.5
Top (best-fit) ([2]; Y205A set WT-3): 106.6
Span [2, 10]: 99.09 and 101 and 68.4
Top [2, 10]: 98.58 and 100.8 and 104.3
Span [2, 11]: 99.09 and 99.34 and 102.9 and 105
Top [2, 11]: 98.58 and 98.6 and 97.73 and 102.7
Span [2, 12]: 99.09 and 99.77 and 100.8 and 101.1
Top [2, 12]: 98.58 and 98.71 and 100.9 and 97.65
Bottom ([2]; best-fit, WT-1 (I284A batch)): 12.18
Span ([2]; best-fit, WT-1 (I284A batch)): 93.68
Top ([2]; best-fit, WT-1 (I284A batch)): 105.9
Bottom ([2]; best-fit, WT-1 (P286A batch)): 5.515
Span ([2]; best-fit, WT-1 (P286A batch)): 80.44
Top ([2]; best-fit, WT-1 (P286A batch)): 85.95
Bottom ([2]; best-fit, WT-1 (S285A batch)): 6.264
Span ([2]; best-fit, WT-1 (S285A batch)): 85.81
Top ([2]; best-fit, WT-1 (S285A batch)): 92.07
Bottom ([2]; best-fit, WT-1 (T194A batch)): -0.5169
Top ([2]; best-fit, WT-1 (T194A batch)): 98.58
Bottom ([2]; best-fit, WT-1 (T287A batch)): 4.265
Span ([2]; best-fit, WT-1 (T287A batch)): 83.04
Top ([2]; best-fit, WT-1 (T287A batch)): 87.31
Bottom ([2]; best-fit, WT-1 (W188A batch)): 6.264
Span ([2]; best-fit, WT-1 (W188A batch)): 85.81
Top ([2]; best-fit, WT-1 (W188A batch)): 92.07
Bottom ([2]; best-fit, WT-2 (I284A batch)): -1.639
Span ([2]; best-fit, WT-2 (I284A batch)): 102.1
Top ([2]; best-fit, WT-2 (I284A batch)): 100.5
Bottom ([2]; best-fit, WT-2 (P286A batch)): 4.265
Span ([2]; best-fit, WT-2 (P286A batch)): 83.04
Top ([2]; best-fit, WT-2 (P286A batch)): 87.31
Bottom ([2]; best-fit, WT-2 (S285A batch)): 12.18
Span ([2]; best-fit, WT-2 (S285A batch)): 93.68
Top ([2]; best-fit, WT-2 (S285A batch)): 105.9
Bottom ([2]; best-fit, WT-2 (T194A batch)): -0.7342
Top ([2]; best-fit, WT-2 (T194A batch)): 98.6
Bottom ([2]; best-fit, WT-2 (T287A batch)): 5.515
Span ([2]; best-fit, WT-2 (T287A batch)): 80.44
Top ([2]; best-fit, WT-2 (T287A batch)): 85.95
Bottom ([2]; best-fit, WT-2 (W188A batch)): -0.5169
Span ([2]; best-fit, WT-2 (W188A batch)): 99.09
Top ([2]; best-fit, WT-2 (W188A batch)): 98.58
Bottom ([2]; best-fit, WT-3 (I284A batch)): 6.264
Span ([2]; best-fit, WT-3 (I284A batch)): 85.81
Top ([2]; best-fit, WT-3 (I284A batch)): 92.07
Bottom ([2]; best-fit, WT-3 (P286A batch)): 4.265
Span ([2]; best-fit, WT-3 (P286A batch)): 83.04
Top ([2]; best-fit, WT-3 (P286A batch)): 87.31
Bottom ([2]; best-fit, WT-3 (S285A batch)): 4.265
Span ([2]; best-fit, WT-3 (S285A batch)): 83.04
Top ([2]; best-fit, WT-3 (S285A batch)): 87.31
Bottom ([2]; best-fit, WT-3 (T194A batch)): -1.061
Top ([2]; best-fit, WT-3 (T194A batch)): 98.71
Bottom ([2]; best-fit, WT-3 (T287A batch)): -0.5169
Span ([2]; best-fit, WT-3 (T287A batch)): 99.09
Top ([2]; best-fit, WT-3 (T287A batch)): 98.58
Bottom ([2]; best-fit, WT-3 (W188A batch)): 12.18
Span ([2]; best-fit, WT-3 (W188A batch)): 93.68
Top ([2]; best-fit, WT-3 (W188A batch)): 105.9
